From patent US20230133910A1, “NEW METHOD FOR DETECTING AND QUANTIFYING RNA” (EAST CHINA UNIVERSITY OF SCIENCE AND TECHNOLOGY, priority 2020, published 2023) come the findings set out here.

The test system of the data set is Carrot-1 RNA aptamer. The experiment in a line: Properties of Carrot-1 RNA aptamer with different fluorophores (spectra, extinction coefficient, quantum yield, activation fold). The data set is classed as biochemical. Particulars: for Emmax / Exmax / Extinction coefficient / Quantum yield: fluorophore bound to Carrot-1 RNA aptamer; for Activation fold: fluorophore with Carrot-1 RNA aptamer versus fluorophore alone. How it is done: (5) Function detection of nucleic acid aptamers Carrot or Carrot mutant nucleic acid aptamer molecules were prepared according to common experimental method (I), 5 μM of nucleic acid aptamer molecules and 1 μM of fluorophore molecules were incubated in detection buffer (40 mM HEPES, pH 7.4, 125 mM KCl, 5 mM MgCl2, 5% DMSO), and Synergy Neo2 multifunctional microplate reader was used for detecting and obtaining the maximum excitation peak and the maximum emission peak of the fluorescence of the nucleic acid aptamer-fluorophore molecule complex. The Synergy Neo2 multifunctional microplate reader was used again for detecting the fluorescence intensity of the aptamer-fluorophore molecule complex under its maximum excitation and emission conditions. Control sample (1 μM of fluorophore molecules without nucleic acid aptamer) was measured under the same condition, and the ratio of fluorescence intensity was calculated. […] By using Synergy Neo2 multifunctional microplate reader, it was detected that the fluorescence intensity of the complex was 5720 when it was excited at 524±10 nm and emitted under the emission condition of 580 nm±10 nm, while fluorescence intensity of the control sample (1 μM of IV-39 fluorophore molecules) under the same detection condition was 20, so the activation multiple of Carrot-1 nuclear acid aptamer to IV-39 fluorophore molecule was 286.
In order to detect the spectral properties of the Carrot-IV-39 complex, Carrot-1 (SEQ ID NO: 2) RNA was prepared according to the commonly used experimental method (1). 1 μM IV-39 with 5 μM Carrot-1 was incubated.
Carrot-1 RNA aptamer was prepared according to the commonly used experimental methods (1), and was used to detect the properties of IV-39 analogues upon Carrot binding, including the fluorescence spectrum, extinction coefficient, quantum yield and fluorescence activation fold. From the data shown in the table, Carrot-1 still could activate the fluorescence of IV-39 analogues.

Turning to `C#CCN1C(=O)/C(=C/c2ccc(O)c(Cl)c2)N=C1/C=C/c1ccc(I)cc1` [Carrot-1-IV-14], the Emmax came out at 585 nm, the Exmax came to 482 nm, the Extinction coefficient worked out at 21000 M⁻¹ cm⁻¹ and the Quantum yield came to 0.02. Further, the Activation fold worked out at 6 fold.

`CN1C(=O)/C(=C/c2cc(Br)c(O)c(Br)c2)N=C1/C=C/c1ccc(F)cc1` [Carrot-1-IV-16]: the Emmax is 587 nm, the Exmax was determined as 485 nm, the Extinction coefficient came to 22000 M⁻¹ cm⁻¹ and the Quantum yield is given as 0.08. The Activation fold was 34 fold.

Regarding `CN1C(=S)/C(=C/c2cc(F)c(O)c(F)c2)N=C1/C=C/c1ccc(C#N)cc1` [Carrot-1-IV-8], the Emmax amounted to 638 nm, the Exmax was determined as 534 nm, the Extinction coefficient came out at 22500 M⁻¹ cm⁻¹ and the Quantum yield was 0.21. In addition, the Activation fold stood at 68 fold.

Consider `CN1C(=O)/C(=C/c2ccc(N(C)CCO)cc2)N=C1/C=C/c1ccc(F)cc1` [Carrot-1-IV-22], for which the Emmax is 580 nm, the Exmax is given as 522 nm, the Extinction coefficient stood at 32000 M⁻¹ cm⁻¹ and the Quantum yield amounted to 0.46. In addition, the Activation fold came to 301 fold.

Regarding `C=CCOCCN(C)c1ccc(/C=C2N=C(/C=C/c3ccccc3C#N)N(C)C\2=S)cc1` [Carrot-1-IV-23], the Emmax is recorded as 648 nm, the Exmax is recorded as 547 nm, the Extinction coefficient worked out at 19000 M⁻¹ cm⁻¹ and the Quantum yield is 0.12. Further, the Activation fold was 57 fold.

In the case of `CN(C)CCN(C)c1ccc(/C=C2N=C(/C=C/c3cccc(F)c3)N(C)C\2=O)cc1` [Carrot-1-IV-34], the Emmax was 581 nm, the Exmax is reported as 515 nm, the Extinction coefficient came to 29000 M⁻¹ cm⁻¹ and the Quantum yield is given as 0.38. For the same compound, the Activation fold stood at 287 fold.

On to `CN1C(=O)/C(=C/c2cc(F)c(O)c(F)c2)N=C1/C=C/c1cccc(O)c1` [Carrot-1-IV-4], for which the Emmax is reported as 574 nm, the Exmax worked out at 490 nm, the Extinction coefficient was determined as 23000 M⁻¹ cm⁻¹ and the Quantum yield stood at 0.37. Moreover, the Activation fold was 191 fold.

As to `CN1C(=O)/C(=C/c2ccc(N(C)CCO)cc2)N=C1/C=C/c1cccc(F)c1` [Carrot-1-IV-19], the Emmax is 590 nm, the Exmax came out at 522 nm, the Extinction coefficient is 30000 M⁻¹ cm⁻¹ and the Quantum yield is 0.43. Also, the Activation fold turned out to be 331 fold.

Take `O=C1/C(=C/c2ccc(O)c(Br)c2)N=C(/C=C/c2cccc(Cl)c2)N1CCO` [Carrot-1-IV-15]: the Emmax worked out at 578 nm, the Exmax is 480 nm, the Extinction coefficient turned out to be 21000 M⁻¹ cm⁻¹ and the Quantum yield is reported as 0.03. The Activation fold was determined as 7 fold.

As for `CN1C(=O)/C(=C/c2cnc(N(C)CCC#N)nc2)N=C1/C=C/c1ccccc1I` [Carrot-1-IV-27], the Emmax is 576 nm, the Exmax is reported as 472 nm, the Extinction coefficient amounted to 19000 M⁻¹ cm⁻¹ and the Quantum yield was found to be 0.09. Also, the Activation fold is 57 fold.

Consider `CN1C(=O)/C(=C/c2ccc(N(C)CCS(=O)(=O)O)cc2)N=C1/C=C/c1ccc(C#N)cc1` [Carrot-1-IV-29], for which the Emmax stood at 619 nm, the Exmax amounted to 531 nm, the Extinction coefficient turned out to be 27000 M⁻¹ cm⁻¹ and the Quantum yield was 0.26. For the same compound, the Activation fold is on record as 87 fold.

With `CN1C(=O)/C(=C/c2ccc(N)cc2)N=C1/C=C/c1ccc(C#N)cc1` [Carrot-1-IV-35], the Emmax amounted to 619 nm, the Exmax came to 527 nm, the Extinction coefficient is 21000 M⁻¹ cm⁻¹ and the Quantum yield worked out at 0.14. The Activation fold was 97 fold.

On to `CCN(CC)c1ccc(/C=C2N=C(/C=C/c3ccc(Cl)cc3)N(CC(=O)OC)C\2=O)nc1` [Carrot-1-IV-25], for which the Emmax worked out at 574 nm, the Exmax was determined as 475 nm, the Extinction coefficient amounted to 18000 M⁻¹ cm⁻¹ and the Quantum yield is listed as 0.02. The Activation fold worked out at 4 fold.

With `C#CCOCCN(C)c1ccc(/C=C2N=C(/C=C/c3ccc(F)cc3)N(C)C\2=O)cc1` [Carrot-1-IV-36], the Emmax is 578 nm, the Exmax was determined as 511 nm, the Extinction coefficient was found to be 22000 M⁻¹ cm⁻¹ and the Quantum yield amounted to 0.28. Moreover, the Activation fold is listed as 262 fold.

As for `CN1CCc2cc(/C=C3N=C(/C=C/c4ccc(F)nc4)N(CCO)C\3=O)ccc21` [Carrot-1-IV-28], the Emmax is listed as 579 nm, the Exmax is given as 476 nm, the Extinction coefficient stood at 19000 M⁻¹ cm⁻¹ and the Quantum yield is 0.04. In addition, the Activation fold turned out to be 19 fold.

As to `CN1C(=O)/C(=C/c2cc(F)c(O)c(F)c2)N=C1/C=C/c1ccccn1` [Carrot-1-IV-38], the Emmax was 581 nm, the Exmax is on record as 519 nm, the Extinction coefficient turned out to be 26000 M⁻¹ cm⁻¹ and the Quantum yield came to 0.31. For the same compound, the Activation fold is recorded as 257 fold.

With `COCCOCCOCCOCCN1C(=O)/C(=C/c2cc(F)c(O)c(I)c2)N=C1/C=C/c1ccc(Cl)cc1` [Carrot-1-IV-12], the Emmax was 577 nm, the Exmax is 482 nm, the Extinction coefficient was found to be 19000 M⁻¹ cm⁻¹ and the Quantum yield is recorded as 0.03. The Activation fold came to 6 fold.

With `CNC(=O)CN1C(=O)/C(=C/c2cc(Cl)c(O)c(Cl)c2)N=C1/C=C/c1ccc(Br)cc1` [Carrot-1-IV-13], the Emmax stood at 579 nm, the Exmax is on record as 478 nm, the Extinction coefficient came out at 20000 M⁻¹ cm⁻¹ and the Quantum yield is reported as 0.02. In addition, the Activation fold worked out at 5 fold.

Consider `COC(=O)CNCCN(C)c1ccc(/C=C2N=C(/C=C/c3ccc(Br)cc3)N(C)C\2=O)cc1` [Carrot-1-IV-32], for which the Emmax is on record as 591 nm, the Exmax is given as 489 nm, the Extinction coefficient was determined as 22000 M⁻¹ cm⁻¹ and the Quantum yield is on record as 0.11. Also, the Activation fold came out at 64 fold.

`CN1CCc2cc(/C=C3N=C(/C=C/c4ccc(Br)nc4)N(CC(F)(F)F)C\3=O)ccc21` [Carrot-1-IV-30]: the Emmax came to 588 nm, the Exmax is 485 nm, the Extinction coefficient amounted to 19000 M⁻¹ cm⁻¹ and the Quantum yield is 0.05. The Activation fold came out at 15 fold.

For `CN1C(=O)/C(=C/c2ccc(N(C)CCN)cc2)N=C1/C=C/c1cccc(F)c1` [Carrot-1-IV-33], the Emmax is 592 nm, the Exmax turned out to be 519 nm, the Extinction coefficient stood at 28000 M⁻¹ cm⁻¹ and the Quantum yield worked out at 0.38. The Activation fold turned out to be 287 fold.

As for `CN1C(=O)/C(=C/c2ccc(N(C)CCO)cc2)N=C1/C=C/c1cccc(O)c1` [Carrot-1-IV-17], the Emmax stood at 582 nm, the Exmax came out at 524 nm, the Extinction coefficient is 32000 M⁻¹ cm⁻¹ and the Quantum yield came to 0.47. Further, the Activation fold is recorded as 282 fold.

For `COCCOCCOCCOCC(=O)OCCN(C)c1ccc(/C=C2N=C(/C=C/c3ccc(C#N)cc3)N(C)C\2=O)cc1` [Carrot-1-IV-31], the Emmax was 621 nm, the Exmax is 508 nm, the Extinction coefficient came to 24000 M⁻¹ cm⁻¹ and the Quantum yield was found to be 0.15. For the same compound, the Activation fold is 75 fold.

`CN1C(=S)/C(=C/c2cc(F)c(O)c(F)c2)N=C1/C=C/c1ccc(F)cc1` [Carrot-1-IV-7]: the Emmax was found to be 598 nm, the Exmax turned out to be 514 nm, the Extinction coefficient is 24000 M⁻¹ cm⁻¹ and the Quantum yield turned out to be 0.27. Further, the Activation fold amounted to 201 fold.

`CC(C)CN1C(=O)/C(=C/c2cc(F)c(O)c(Br)c2)N=C1/C=C/c1ncc(C#N)cn1` [Carrot-1-IV-11]: the Emmax is reported as 614 nm, the Exmax is on record as 507 nm, the Extinction coefficient amounted to 21000 M⁻¹ cm⁻¹ and the Quantum yield is 0.05. Moreover, the Activation fold stood at 16 fold.

On to `CCCN1C(=S)/C(=C/c2ccc(N(C)C)nc2)N=C1/C=C/c1ccccc1F` [Carrot-1-IV-24], for which the Emmax is given as 615 nm, the Exmax was determined as 498 nm, the Extinction coefficient came out at 21000 M⁻¹ cm⁻¹ and the Quantum yield is listed as 0.09. Also, the Activation fold turned out to be 45 fold.
